Series [1] has as its target Cbl riboswitch RNA variant D. As to the kind of experiment: Isothermal titration calorimetry (ITC), aptamer D. As to conditions: ITC at 25° C., RNA buffer; mean of 3 independent experiments +/- STDEV. It counts as binding. As to the method: (§1) ITC experiments were performed using protocols previously established and described [reference 30, 31]. Briefly, the RNA was dialyzed overnight at 4° C. into RNA buffer (100 mM KCl, 10 mM NaCl, 1 mM MgCl2, 50 mM HEPES, pH 8.0) using 6-8000 Dalton molecular weight cutoff dialysis tubing (Spectra/Por). The dialysis buffer was used to dissolve Cbl and Cbl-5xPEG-ATTO590, and to dilute RNA To the desired concentration. Titrations were performed at 25° C. using a MicroCal ITC 200 microcalorimeter (GE Healthcare) and data were fit using the Origin software suite as previously described [reference 61].
In general terms: ITC needs no label: the signal is the heat of the interaction.

Series [2] deals with truncated Cbl riboswitch RNA variant AT. The series is described as follows: Isothermal titration calorimetry (ITC), aptamer AT. As to conditions: ITC at 25° C., RNA buffer; mean of 3 independent experiments +/- STDEV. It counts as binding. On the procedure: as §1
Series [3] concerns the target Cbl riboswitch RNA variant A (wild type env8). As to the kind of experiment: Isothermal titration calorimetry (ITC), aptamer A. Type of series: binding. The note with it: ITC at 25° C., RNA buffer; mean of 3 independent experiments +/- STDEV. On the procedure: as §1
Series [4] relates to SM-KDM5B translation reporter tagged with 12 copies of Riboglow. As to the kind of experiment: Translation assay, live U2-OS cells. It counts as cell-based. As to the method:
U2-OS cells seeded on home-made imaging dishes as described above were bead loaded with a mix of 1 μg plasmid DNA encoding for the SM-KDM5B translation reporter, 3 μL of a 5 μM stock of the Cbl-fluorophore probe Cbl-4xGly-ATTO 590 and 1 μL of Alexa488-labeled Fab to bind N-terminal FLAG tags in the reporter. After 6-8 hours, cells were washed 3 times with PBS, and medium was replaced with FluoroBrite medium (Gibco). Imaging was performed under HILO conditions [reference 49] at 37° C. and 5% CO2 using an Andor Ixon Ultra DU897U-C50 EMCCD camera. When indicated, puromycin was added during the image acquisition at a final concentration of 50 μg/mL.

In a further series the test system is RNA AT. The series is described as follows: In vitro fluorescence turn-on, plate reader, aptamer AT. Type of series: biochemical. As to conditions: probe 0.25 or 0.5 μM, RNA at least 5 μM. As to the method:
(§2) The concentration of Cbl-fluorophore probes, free fluorophores and free Cbl was determined using extinction coefficients listed in Table 1B. In vitro experiments were conducted in RNA buffer (100 mM KCl, 10 mM NaCl, 1 mM MgCl2, 50 mM HEPES, pH 8.0). For the Cbl-fluorophore probes, the extinction coefficient of the fluorophores was used to determine the concentration. […] The fluorescence intensity of each probe was measured in the presence or absence of RNA in RNA buffer as technical triplicates in a Tecan Safire-II fluorescence plate. […] Samples were incubated for at least 20 minutes (min) at room temperature in the dark to allow for Cbl-binding of the RNA prior to data collection. The excitation wavelength for each probe is listed in Table 1B and the emission spectrum was collected in 1 nm increments for the range listed in Table 1B. Each emission spectrum was buffer subtracted, integrated and normalized to the signal of the free fluorophore at the same concentration. Resulting % fluorescence measurements were reproducible for measurements on different days.

The test system of series [5] is RNA AT,MUT (four point mutations in the Cbl-binding site). The series is described as follows: In vitro fluorescence turn-on, plate reader, aptamer AT,MUT. Type of series: biochemical. As to conditions: probe 0.25 or 0.5 μM, RNA at least 5 μM. On the procedure:
as §2

The next series relates to Broccoli. The series is described as follows: Photobleaching of RNA/probe complexes, constant illumination, Broccoli. Type of series: physicochemical. As to conditions: bound to Broccoli, within a second. As to the method:
For photobleaching experiments, indicated probes and RNA (Table 10) were mixed before about 3 to 4× of microscope immersion oil (Olympus immersion oil type-F) was added and the solution was emulsified to generate droplets. Samples were prepared in RNA buffer for Cbl-fluorophore samples (100 mM KCl, 10 mM NaCl, 1 mM MgCl2, 50 mM HEPES, pH 8.0) and in Broccoli buffer (40 mM HEPES pH 7.4, 100 mM KCl, 1 mM MgCl2) for the DFHBI-1T/Broccoli sample. The droplets were sandwiched between a glass slide and a coverslip. The sample was placed on the sample stage of a Nikon Ti-E HCA widefield fluorescence microscope with the coverslip facing a 20× objective lens. Photostability was assessed in part by fixing the excitation rate, i.e. the number of absorbed excitation photons were the same for Cbl-fluorophore/RNA samples and the DFHBI-1T/Broccoli sample. The high irradiance for the DFHBI-1T Broccoli sample is a result of its low extinction coefficient. Images were acquired every 50 ms for DFHBI-1T/Broccoli and every 250 ms for others for 3 seconds, then every second for 47 seconds or longer, and the exposure time of each image was 15 ms for DFHBI-1T/Broccoli and 40 ms for others. A total of 6 to 15 droplets were analyzed for each sample.

The test system of a further series is ACTB-(2xdBroccoli) mRNA. As to the kind of experiment: Stress granule (SG) assay, live U2-OS Halo-G3BP1 cells, Broccoli tag. Type of series: cell-based, Homo sapiens. The note with it: arsenite. As to the method: U2-OS cells stably producing GFP-G3BP1 or genomically producing Halo-G3BP1 were seeded at 0.25×10^6 cells in imaging dishes. One day after seeding, cells were chemically transfected with typically 2-μg plasmid DNA (1 μg of the ACTB plasmid fused with an RNA tag of interest mixed with 1 μg of the transfection marker pNLS-TagBFP (in pcDNA)) using the TransIT transfection system following manufacturer recommendations (Mirus). On the next day, cells were stained and bead loaded with the Cbl-fluorophore probe as described above. The media that was added after bead loading contained 0.5 mM sodium arsenite and cells were incubated at 37° C./5% CO 2 for 30-45 min to induce stress granules. Cells were rinsed once in PBS and Fluorobrite media (Gibco), supplemented with 0.5 mM sodium arsenite, was added for live cell imaging. For correlative live/fixed imaging where cells were first imaged live, followed by fixation and FISH/immunofluorescence imaging of the same cells, the following modifications were made to the protocol above. Instead of home-made imaging dishes, gridded imaging dishes (MatTek) were used. Dishes were coated with 1 μg/mL fibronectin (Sigma) for 4 hours and fibronectin was rinsed once with full media before cells were seeded. Because plasmid ACTB-(AT) 4x was used, a higher concentration of Cbl-5xPEG-ATTO590 was bead loaded (3 μL of 50 μM probe).
For live imaging of SGs tagged with 2xdBroccoli in U2-OS cells, the pinhole was 67.7 μm and the laser settings were as follows. For the DAPI channel, the laser was set at 5.0 (HV=110), for the GFP channel the laser was set at 1.0 (HV=110), for the TRITC channel the laser was set at 1.0 (HV=40). For live imaging of SGs tagged with MS2 stem-loop repeats in U2-OS cells, the pinhole was 67.7 μm and the laser settings were as follows. For the DAPI channel, the laser was set at 5.0 (HV=110), for the GFP channel the laser was adjusted for optimal contrast without detector saturation (approximately 1.0-2.5) (HV approximately 60-100), for the TRITC channel the laser was set at 0.9 (HV=40).

Regarding `C/C1=C2/N[C@H]([C@H](CC(N)=O)[C@@]2(C)CCC(=O)NC[C@@H](C)OP(=O)(O)O[C@H]2[C@@H](O)[C@@H](n3cnc4cc(C)c(C)cc43)O[C@@H]2CO)[C@]2(C)N=C(/C(C)=C3N=C(/C=C4N=C1[C@@H](CCC(N)=O)C\4(C)C)[C@@H](CCC(N)=O)[C@]\3(C)CC(N)=O)[C@@H](CCC(N)=O)[C@]2(C)CC(N)=O.[Co]` [Cbl, cobalamin], the Kd in series [1] was found to be 0.0022 ± 0.0016 µM; in series [2], 0.29 µM; in series [3], 0.037 ± 0.001 µM.
`COc1ccc(C[C@H](N)C(=O)N[C@H]2[C@@H](O)[C@H](n3cnc4c(N(C)C)ncnc43)O[C@@H]2CO)cc1` [Puromycin]: the “protein signal at translation sites” value in series [4] (Puromycin added to cells with co-moving translation spots) is “rapid disappearance of the protein signal”. In addition, the “mRNA spots colocalized with protein signal” value in series [4] (after Puromycin treatment, 50 μg/mL) amounted to 30±12%.
As to `C/C1=C2/[N-][C@H]([C@H](CC(N)=O)[C@@]2(C)CCC(=O)NC[C@@H](C)OP(=O)([O-])O[C@H]2[C@@H](O)[C@@H](n3cnc4cc(C)c(C)cc43)O[C@@H]2Cn2cc(CNC(=O)c3ccc4c(c3)C3(OC4=O)c4ccc(O)cc4Oc4cc(O)ccc43)nn2)[C@]2(C)N=C(/C(C)=C3N=C(/C=C4N=C1[C@@H](CCC(N)=O)C\4(C)C)[C@@H](CCC(N)=O)[C@]\3(C)CC(N)=O)[C@@H](CCC(N)=O)[C@]2(C)CC(N)=O.[C-]#N.[Co+3]` [Cbl-FAM], the figures for the Fold fluorescence turn-on (in the series with RNA AT; in series [5]) were 2.5x and 0.5x, respectively.
`CC1=N/C(=C\c2cc(F)c(O)c(F)c2)C(=O)N1CC(F)(F)F` [DFHBI-1T]: the “fluorescence remaining after photobleaching” value in the series with Broccoli is given as less than 20%. In the series on ACTB-(2xdBroccoli) mRNA, the “cells with Halo-G3BP1 labeled SGs where no corresponding SGs in the green Broccoli channel were detectable” value was determined as 90%, the “total SGs detected in the green Broccoli channel” value was found to be 4% and the “transfected cells in which at least one SG was detected in the green channel” value is listed as 10%.

Broadly, the Kd is the constant that tells how readily two partners part at equilibrium. Low values mean tighter binding, high ones weaker binding.

For the origin of these results see US11155821B2, “Compositions and methods for tagging ribonucleic acids” (The Regents of the University of Colorado, a body corporate, priority 2018, dated 2021).
